Assay results reported in US11667649B2, “Heteroaromatic macrocyclic ether chemotherapeutic agents” (Nuvalent, Inc., priority 2020, dated 2023).

Tested on: TPM3-NTRK1-wt IC50 / primary target (e.g. CD74-ROS1-wt) IC50, Ba/F3 cells
Assay: Cell assay TRKA selectivity (TRKA potency divided by primary target potency)
Type: cell-based
Settings: for TPM3-NTRK1-wt/CD74-ROS1-G2032R: TRKA selectivity ratio: TPM3-NTRK1-wt IC50 / CD74-ROS1-G2032R IC50, Ba/F3 cells; for TPM3-NTRK1-wt/CD74-ROS1-wt: TRKA selectivity ratio: TPM3-NTRK1-wt IC50 / CD74-ROS1-wt IC50, Ba/F3 cells; for TPM3-NTRK1-wt/EML4-ALK-L1196M-G1202R: TRKA selectivity ratio: TPM3-NTRK1-wt IC50 / EML4-ALK-L1196M-G1202R IC50, Ba/F3 cells; for TPM3-NTRK1-wt/EML4-ALK-wt: TRKA selectivity ratio: TPM3-NTRK1-wt IC50 / EML4-ALK-wt IC50, Ba/F3 cells
From the text: Genes encoding CD74-ROS1 wild-type (wt), CD74-ROS1 G2032R, CD74-ROS1 S1986F, CD74-ROS1 L2026M, CD74-ROS1 D2033N, EML4-ALK wt (variant 1), EML4-ALK G1202R (variant 1), EML4-ALK L1196M/G1202R (variant 1), EML4-ALK G1202R/G1269A (variant 1), EML4-ALK G1202R/L1198F (variant 1), and TPM3-TRKA were synthesized at GeneRay, cloned into the retroviral construct pMSCV-puro (Biovector), and packaged into retroviral particles. The virus was used to infect Ba/F3 cells (RIKEN) at multiplicity of infection=1 for 1 day. Infected cells were rescued in media (RPMI-1640 with 10% fetal bovine serum and 1% streptomycin and penicillin) supplemented with mouse IL-3 (10 ng/mL) for 2 days, and stable cell lines were selected by IL-3 withdrawal and puromycin (0.8 μg/mL) for 7 days. Monoclones were selected by single-cell dilution in IL-3-free medium containing puromycin (0.8 μg/mL). Transformation of desired genes was confirmed by Sanger sequencing and western blot using the following antibodies: ROS1 (CST #3287), ALK (CST #3633), and pan-TRK (Abcam #76291).
Stable cells were plated at 1,000 cells/well (40 μL) in a 384-well plate for 1 day. Test compounds (40 nL) were then added in a 3-fold dilution series using the TECAN EVO200 liquid handler and incubated for 72 hours. Plates were equilibrated at room temperature for 15 minutes followed by addition of 40 μL CellTiter-Glo reagent (Promega). Luminescence was measured on a plate reader. Half-maximal inhibitory concentration (IC50) was calculated from percent inhibition and inhibitor concentration using four-parameter logistic regression. […] Exemplary data is given in Table 4 (nd is not determined).
TRKA selectivity was calculated by dividing a compound's TRKA potency by its primary target potency (e.g. TPM3-NTRK1-wt IC50/CD74-ROS1-wt IC50). Compound selectivity can be interpreted by binning ratio values: bin A for very high selectivity, ratio>30-fold; bin B for high selectivity, ratio>10-fold; bin C for moderate selectivity, ratio≥1; and bin D for low selectivity, ratio<1. […] (nd=not determined).

Structure (SMILES)	TPM3-NTRK1-wt/CD74-ROS1-G2032R	TPM3-NTRK1-wt/CD74-ROS1-wt	TPM3-NTRK1-wt/EML4-ALK-L1196M-G1202R	TPM3-NTRK1-wt/EML4-ALK-wt
C[C@H]1Oc2cc(cnc2N)-c2c(nn(C)c2C#N)Cc2cccnc2-c2ccc(F)cc21 [Example 112, (20R)-23-amino-17-fluoro-4,20-dimethyl-21-oxa-4,5,12,24-tetraazapentacyclo[20.3.1.0^2,^6.0^8,^13.0^14,^19]hexacosa-1(25),2,5,8(13),9,11,14,16,18,22(26),23-undecaene-3-carbonitrile]	C (bin C for moderate selectivity, ratio≥1)	A (bin A for very high selectivity, ratio>30-fold)	D (bin D for low selectivity, ratio<1)	A (bin A for very high selectivity, ratio>30-fold)
CCc1nnn2c1-c1cnc(N)c(c1)O[C@H](C)c1cc(F)ccc1-c1ncc(F)cc1C2 [Example 16, (20R)-3-ethyl-10,17-difluoro-20-methyl-21-oxa-4,5,6,12,24-pentaazapentacyclo[20.3.1.0^2,^6.0^8,^13.0^14,^19]hexacosa-1(25),2,4,8(13),9,11,14,16,18,22(26),23-undecaen-23-amine]	B (bin B for high selectivity, ratio>10-fold)	A (bin A for very high selectivity, ratio>30-fold)	C (bin C for moderate selectivity, ratio≥1)	B (bin B for high selectivity, ratio>10-fold)
C[C@H]1Oc2cc(cnc2N)-c2c(cnn2CC(F)(F)F)Cc2cn(C)nc2-c2ccc(F)cc21 [Example 27, (19R)-16-fluoro-10,19-dimethyl-3-(2,2,2-trifluoroethyl)-20-oxa-3,4,10,11,23-pentaazapentacyclo[19.3.1.0^2,^6.0^8,^12.0^13,^18]pentacosa-1(24),2(6),4,8,11,13,15,17,21(25),22-decaen-22-amine]	A (bin A for very high selectivity, ratio>30-fold)	A (bin A for very high selectivity, ratio>30-fold)	A (bin A for very high selectivity, ratio>30-fold)	A (bin A for very high selectivity, ratio>30-fold)
Nc1ncc2cc1OCc1cc(F)ccc1-n1nc(Cl)cc1Cc1nnn(CC3CC3)c1-2 [Example 110, 10-chloro-3-(cyclopropylmethyl)-16-fluoro-20-oxa-3,4,5,11,12,23-hexaazapentacyclo[19.3.1.0^2,^6.0^8,^12.0^13,^18]pentacosa-1(24),2(6),4,8,10,13,15,17,21(25),22-decaen-22-amine]	A (bin A for very high selectivity, ratio>30-fold)	A (bin A for very high selectivity, ratio>30-fold)	A (bin A for very high selectivity, ratio>30-fold)	A (bin A for very high selectivity, ratio>30-fold)
C[C@H]1Oc2cc(cnc2N)-c2c(c(Cl)nn2CC2CC2)Cc2cn(C)nc2-c2ccc(F)cc21 [Example 133, (19R)-5-chloro-3-(cyclopropylmethyl)-16-fluoro-10,19-dimethyl-20-oxa-3,4,10,11,23-pentaazapentacyclo[19.3.1.0^2,^6.0^8,^12.0^13,^18]pentacosa-1(24),2(6),4,8,11,13,15,17,21(25),22-decaen-22-amine]	A (bin A for very high selectivity, ratio>30-fold)	A (bin A for very high selectivity, ratio>30-fold)	A (bin A for very high selectivity, ratio>30-fold)	A (bin A for very high selectivity, ratio>30-fold)
Cc1nn(CC2CC2)c2c1Cc1cccnc1-c1ccc(F)cc1[C@@H](C)Oc1cc-2cnc1N [Example 135, (20R)-3-(cyclopropylmethyl)-17-fluoro-5,20-dimethyl-21-oxa-3,4,12,24-tetraazapentacyclo[20.3.1.0^2,^6.0^8,^13.0^14,^19]hexacosa-1(25),2(6),4,8(13),9,11,14,16,18,22(26),23-undecaen-23-amine]	A (bin A for very high selectivity, ratio>30-fold)	A (bin A for very high selectivity, ratio>30-fold)	A (bin A for very high selectivity, ratio>30-fold)	A (bin A for very high selectivity, ratio>30-fold)
C[C@H]1Oc2cc(cnc2N)-c2c(cnn2CC2CC2)Cc2cn(C)nc2-c2ccc(F)cc21 [Example 121, (19R)-3-(cyclopropylmethyl)-16-fluoro-10,19-dimethyl-20-oxa-3,4,10,11,23-pentaazapentacyclo[19.3.1.0^2,^6.0^8,^12.0^13,^18]pentacosa-1(24),2(6),4,8,11,13,15,17,21(25),22-decaen-22-amine]	A (bin A for very high selectivity, ratio>30-fold)	A (bin A for very high selectivity, ratio>30-fold)	A (bin A for very high selectivity, ratio>30-fold)	A (bin A for very high selectivity, ratio>30-fold)
CCn1ncc2c1-c1cnc(N)c(c1)O[C@H](C)c1cc(F)ccc1-n1nc(Br)cc1C2 [Example 80, (19R)-10-bromo-3-ethyl-16-fluoro-19-methyl-20-oxa-3,4,11,12,23-pentaazapentacyclo[19.3.1.0^2,^6.0^8,^12.0^13,^18]pentacosa-1(24),2(6),4,8,10,13,15,17,21(25),22-decaen-22-amine]	A (bin A for very high selectivity, ratio>30-fold)	A (bin A for very high selectivity, ratio>30-fold)	B (bin B for high selectivity, ratio>10-fold)	A (bin A for very high selectivity, ratio>30-fold)
C[C@H]1Oc2cc(cnc2N)-c2c(nnn2CC2CC2)Cc2cc(C(F)(F)F)nn2-c2ccc(F)cc21 [Example 128, (19R)-3-(cyclopropylmethyl)-16-fluoro-19-methyl-10-(trifluoromethyl)-20-oxa-3,4,5,11,12,23-hexaazapentacyclo[19.3.1.0^2,^6.0^8,^12.0^13,^18]pentacosa-1(24),2(6),4,8,10,13,15,17,21(25),22-decaen-22-amine]	A (bin A for very high selectivity, ratio>30-fold)	A (bin A for very high selectivity, ratio>30-fold)	C (bin C for moderate selectivity, ratio≥1)	B (bin B for high selectivity, ratio>10-fold)
Cc1nn(CC2CC2)c2c1Cc1cn(C)nc1-c1ccc(F)cc1COc1cc-2cnc1N [Example 127, 3-(cyclopropylmethyl)-16-fluoro-5,10-dimethyl-20-oxa-3,4,10,11,23-pentaazapentacyclo[19.3.1.0^2,^6.0^8,^12.0^13,^18]pentacosa-1(24),2(6),4,8,11,13,15,17,21(25),22-decaen-22-amine]	A (bin A for very high selectivity, ratio>30-fold)	A (bin A for very high selectivity, ratio>30-fold)	A (bin A for very high selectivity, ratio>30-fold)	A (bin A for very high selectivity, ratio>30-fold)
CCn1ncc2c1-c1cnc(N)c(c1)O[C@H](C)c1cc(F)ccc1-n1nccc1C2 [Example 33, (19R)-3-ethyl-16-fluoro-19-methyl-20-oxa-3,4,11,12,23-pentaazapentacyclo[19.3.1.0^2,^6.0^8,^12.0^13,^18]pentacosa-1(24),2(6),4,8,10,13,15,17,21(25),22-decaen-22-amine]	A (bin A for very high selectivity, ratio>30-fold)	A (bin A for very high selectivity, ratio>30-fold)	B (bin B for high selectivity, ratio>10-fold)	A (bin A for very high selectivity, ratio>30-fold)
CCn1ncc2c1-c1cnc(N)c(c1)O[C@H](C)c1cc(F)ccc1-n1ncc(F)c1C2 [Example 46, (19R)-3-ethyl-9,16-difluoro-19-methyl-20-oxa-3,4,11,12,23-pentaazapentacyclo[19.3.1.0^2,^6.0^8,^12.0^13,^18]pentacosa-1(24),2(6),4,8,10,13,15,17,21(25),22-decaen-22-amine]	A (bin A for very high selectivity, ratio>30-fold)	A (bin A for very high selectivity, ratio>30-fold)	C (bin C for moderate selectivity, ratio≥1)	A (bin A for very high selectivity, ratio>30-fold)
